Bridge positions count the residues as written; N and C are the ends. Side chains are listed from the residue outwards. Peptide text beside a SMILES is read from it. * marks the point of attachment. Butanoyl(4-(4-I-phenyl)) = O=C(CCCc1ccc(I)cc1)*; PEG2 = NCCOCCOCCC(=O)O
What was measured:
[1] = Tissue distribution in female Balb/c mice; type: in vivo, mouse; conditions: for Brain concentration / Colon concentration / Kidneys concentration / Liver concentration / Mammary concentration / Ovaries concentration / Plasma Concentration / Lungs concentration: Balb/c mice
[2] = Pharmacokinetics in female Sprague-Dawley rats; type: in vivo, rat
[3] = Solubility and aggregation; type: physicochemical
[4] = 3 hr, Mouse 1 (individual animal)
[5] = 3 hr, Mouse 2 (individual animal)
[6] = 3 hr, Mouse 3 (individual animal)
[7] = 8 hr, Mouse 1 (individual animal)
[8] = 8 hr, Mouse 2 (individual animal)
[9] = 8 hr, Mouse 3 (individual animal)
[10] = female, Balb/c, mouse, brain, ip, 30 mg/kg
[11] = female, Balb/c, mouse, breast tissue including mammary gland, ip, 30 mg/kg
[12] = female, Balb/c, mouse, colon, ip, 30 mg/kg
[13] = female, Balb/c, mouse, kidney, ip, 30 mg/kg
[14] = female, Balb/c, mouse, kidneys, ip, 30 mg/kg
[15] = female, Balb/c, mouse, liver, ip, 30 mg/kg
[16] = female, Balb/c, mouse, lungs, ip, 30 mg/kg
[17] = female, Balb/c, mouse, ovaries, ip, 30 mg/kg
[18] = female, Balb/c, mouse, plasma, ip, 30 mg/kg
[19] = female, Sprague-Dawley, rat, plasma, 30 mg/kg
[20] = female, Sprague-Dawley, rat, plasma, iv, 30 mg/kg

CC[C@H](C)[C@H](NC(=O)[C@H](CC(C)C)NC(=O)[C@H](CC(=O)O)NC(=O)CNC(=O)[C@H](CCCNC(=N)N)NC(=O)[C@@H](NC(=O)[C@H](Cc1ccccc1)NC(=O)[C@H](Cc1ccc(O)cc1)NC(=O)[C@@H]1CCC(=O)NCC(=O)NCC(=O)N[C@@H](CCCNC(=N)N)C(=O)NCC(=O)N[C@@H](Cc2c[nH]cn2)C(=O)N[C@@H](C(C)C)C(=O)N2CCC[C@H]2C(=O)N1)C(C)C)C(=O)N[C@@H](CO)C(=O)N[C@@H](Cc1ccccc1)C(=O)N[C@@H](Cc1ccc(O)cc1)C(=O)N[C@@H](CCCCNC(=O)CCOCCOCCNC(=O)CCCc1ccc(I)cc1)C(=O)O [lassotide 47] (GGRGHVPEYFVRGDLISFYK([PEG2-Butanoyl(4-(4-I-phenyl))])-OH; lactam N-8)
Brain concentration [1, 4]: 985 ng/g | Colon concentration [1, 4]: 6100 ng/g | Kidneys concentration [1, 4]: 11600 ng/g | Liver concentration [1, 4]: 4430 ng/g | Mammary concentration [1, 4]: 21700 ng/g | Ovaries concentration [1, 4]: 27800 ng/g | Plasma Concentration [1, 4]: 192 µg/mL | Brain concentration [1, 5]: 968 ng/g | Colon concentration [1, 5]: 6010 ng/g | Kidneys concentration [1, 5]: 11500 ng/g | Liver concentration [1, 5]: 4000 ng/g | Lungs concentration [1, 5]: 32400 ng/g | Mammary concentration [1, 5]: 18900 ng/g | Ovaries concentration [1, 5]: 25700 ng/g | Plasma Concentration [1, 5]: 168 µg/mL | Brain concentration [1, 6]: 756 ng/g | Colon concentration [1, 6]: 4370 ng/g | Kidneys concentration [1, 6]: 9960 ng/g | Liver concentration [1, 6]: 3250 ng/g | Lungs concentration [1, 6]: 36100 ng/g | Mammary concentration [1, 6]: 14800 ng/g | Ovaries concentration [1, 6]: 20800 ng/g | Plasma Concentration [1, 6]: 160 µg/mL | Brain concentration [1, 7]: 974 ng/g | Colon concentration [1, 7]: 2940 ng/g | Kidneys concentration [1, 7]: 12200 ng/g | Liver concentration [1, 7]: 4440 ng/g | Lungs concentration [1, 7]: 41500 ng/g | Mammary concentration [1, 7]: 12200 ng/g | Ovaries concentration [1, 7]: 18700 ng/g | Plasma Concentration [1, 7]: 117 µg/mL | Brain concentration [1, 8]: 617 ng/g | Colon concentration [1, 8]: 2460 ng/g | Kidneys concentration [1, 8]: 8480 ng/g | Liver concentration [1, 8]: 2430 ng/g | Lungs concentration [1, 8]: 31300 ng/g | Mammary concentration [1, 8]: 8100 ng/g | Ovaries concentration [1, 8]: 14700 ng/g | Plasma Concentration [1, 8]: 106 µg/mL | Brain concentration [1, 9]: 406 ng/g | Colon concentration [1, 9]: 2190 ng/g | Kidneys concentration [1, 9]: 6640 ng/g | Liver concentration [1, 9]: 2230 ng/g | Lungs concentration [1, 9]: 16000 ng/g | Mammary concentration [1, 9]: 5390 ng/g | Ovaries concentration [1, 9]: 8870 ng/g | Plasma Concentration [1, 9]: 77 µg/mL | tissue level at time at 3 h [1, 10]: 903 ng/g | tissue level at time at 8 h [1, 10]: 666 ng/g | tissue level at time at 3 h [1, 11]: 18500 ng/g | tissue level at time at 8 h [1, 11]: 8560 ng/g | tissue level at time at 3 h [1, 12]: 5490 ng/g | tissue level at time at 8 h [1, 12]: 2530 ng/g | tissue level at time at 3 h [1, 13]: 11000 ng/g | tissue level at time at 8 h [1, 13]: 9110 ng/g | tissue level at time at 3 h [1, 14]: 11000 ng/g | tissue level at time at 8 h [1, 14]: 9110 ng/g | tissue level at time at 3 h [1, 15]: 3890 ng/g | tissue level at time at 8 h [1, 15]: 3030 ng/g | tissue level at time at 3 h [1, 16]: 57200 ng/g | tissue level at time at 8 h [1, 16]: 29600 ng/g | tissue level at time at 3 h [1, 17]: 24800 ng/g | tissue level at time at 8 h [1, 17]: 14100 ng/g | level at 3 h [1, 18]: 173 µg/mL | level at 8 h [1, 18]: 100 µg/mL | AUC(0-inf) [2, 19]: 2740 µg·h/mL | C0 [2, 19]: 441 µg/mL | Cmax [2, 19]: 369 µg/mL | AUC(0-t) [2, 20]: 2360 µg·h/mL | Tmax [2, 20]: 0.2 h | Vd [2, 20]: 0.1 L/kg | clearance [2, 20]: 0.2 mL/min/kg | half-life [2, 20]: 8.5 h | AUCINF ([2]; rat 30 mg/kg, animal 1M001): 2670 µg·h/mL | AUClast ([2]; rat 30 mg/kg, animal 1M001): 2310 µg·h/mL | C0 ([2]; rat 30 mg/kg, animal 1M001): 383 µg/mL | CL ([2]; rat 30 mg/kg, animal 1M001): 0.187 mL/min/kg | Cmax ([2]; rat 30 mg/kg, animal 1M001): 327 µg/mL | Vz ([2]; rat 30 mg/kg, animal 1M001): 0.133 L/kg | t1/2 ([2]; rat 30 mg/kg, animal 1M001): 8.2 h | AUCINF ([2]; rat 30 mg/kg, animal 1M002): 2370 µg·h/mL | AUClast ([2]; rat 30 mg/kg, animal 1M002): 2110 µg·h/mL | C0 ([2]; rat 30 mg/kg, animal 1M002): 370 µg/mL | CL ([2]; rat 30 mg/kg, animal 1M002): 0.211 mL/min/kg | Cmax ([2]; rat 30 mg/kg, animal 1M002): 336 µg/mL | Vz ([2]; rat 30 mg/kg, animal 1M002): 0.144 L/kg | t1/2 ([2]; rat 30 mg/kg, animal 1M002): 7.9 h | AUCINF ([2]; rat 30 mg/kg, animal 1M003): 3180 µg·h/mL | AUClast ([2]; rat 30 mg/kg, animal 1M003): 2650 µg·h/mL | C0 ([2]; rat 30 mg/kg, animal 1M003): 571 µg/mL | CL ([2]; rat 30 mg/kg, animal 1M003): 0.157 mL/min/kg | Cmax ([2]; rat 30 mg/kg, animal 1M003): 443 µg/mL | Vz ([2]; rat 30 mg/kg, animal 1M003): 0.127 L/kg | t1/2 ([2]; rat 30 mg/kg, animal 1M003): 9.3 h | Solubility in DMSO ([3]; DMSO (text: also formulations containing 10-20% DMSO and PEG)): > 200 mg/mL | solubility ([3]; acetate buffer, pH 4.5, aqueous buffer): ≥ 30 mg/mL

Reference: article doi:10.1101/2025.01.28.635346v1 (bioRxiv, 2025)
